Source: patent publication US7893199B2, “Peptides having neutrophil-stimulating activity” (National University Corporation Gunma University, priority 2006, dated 2011)
One block for each substance: values may come before it. Where no end group is shown, it is not given here. The star is where a group is joined. Biotin = O=C1N[C@H]2[C@H](CS[C@H]2CCCCC(=O)*)N1

Columns and labels:
[1] = system: HL-60 cells differentiated into the neutrophil-like cells; experiment: β-hexosaminidase-secreting activity of neutrophil-like differentiated HL-60 cells; type: cell-based, human; details: differentiated HL-60 cells; read-out: EC50, β-hexosaminidase-secreting activity
From the text: (1) Culture of Cell and Differentiation Into Neutrophil-like Cell
In this time, the cells were subcultured at a cell density of 1.0×10^5 cells/ml to 1.5×10^6 cells/ml, the number of cells was counted using a microscope, and the state of the cells was also confirmed.
The HL-60 cells were differentiated into neutrophil-like cells by setting the cell density in the flask to about 1.0×10^6 cells/ml, adding dibutylyl-cAMP (db-cAMP) as a differentiation-inducing agent so as to have a final concentration of 500 μM, and incubating the cells in the presence of CO2 at 37° C. for 3 days.
(2) Stimulation of Cell and Measurement of β-Hexosaminidase-secreting Activity
The cells were collected by centrifuging the suspension of the differentiated HL-60 cells (1,000 rpm, 5 minutes, 4° C.). After that, the following operation was repeated three times to wash the cells: Hepes buffered Hank's solution (HBHS) containing ice-cooled 0.1% BSA (1.2 mM CaCl2.2H2O, 5.4 mM KCl, 0.44 mM KH2PO4, 0.49 mM MgCl2.6H2O, 0.41 mM MgSO4.7H2O, 136.9 mM NaCl, 0.34 mM Na2HPO4, 10 mM Hepes, 4.2 mM NaHCO3, 5.5 mM D-glucose, pH 7.4) was added to the cells; the mixture was suspended by inversion; and the mixture was centrifuged again (1,000 rpm, 5 minutes, 4° C.). Subsequently, HBHS was added so that the mixture has a cell density of 5.6×10^6 cells/ml and suspended. Then, DNase I and cytochalasin B were each added so as to have a final concentration of 5 μg/ml, and the cell suspension was dispensed in an amount of 90 μl (5×10^5 cells) on ice. […] After the cell stimulation for 10 minutes, 100 μl of an ice-cooled stop solution (25 mM Tris, 123 mM NaCl, 2.7 mM KCl, pH 7.4) were added, and immediately, the mixture was centrifuged (5,000 rpm, 1 minute, 4° C.). 200 μl of the obtained supernatant were transferred to a new tube.
The amount of β-hexosaminidase released in the supernatant of the reaction solution was measured by an enzyme reaction using p-nitrophenyl-N-acetyl-μ-D-glucosaminide as a substrate (Non-patent Document 12). That is, the supernatant of the reaction solution was dispensed in an amount of 90 μl to a 96-well plate. 60 μl of a substrate solution (10 mM p-nitrophenyl-N-acetyl-μ-D-glucosaminide, 40 mM citrate, 70 mM Na2HPO4, pH 4.5) were added to each well, followed by incubation at 37° C. for 1 hour. After the reaction, 100 μl of a stop solution (0.4 M glycine, pH 10.7) were added to each well and a color of the released p-nitrophenol was developed. The color development was measured with a plate reader at adsorption at 405 nm (reference: 492 nm). The all amount of β-hexosaminidase contained in the cells was quantified by treating the cells with Triton X-100 having a final concentration of 0.05%. In addition, the amount of β-hexosaminidase secreted by stimulation of 10 μM fMLP was also measured, and the ratio of the secretion amount by stimulation with each peptide to the above sectretion amount by stimulation with fMLP.

[2] = system: differentiated HL-60 cells; experiment: migration activity (Chemotaxis Index) of differentiated HL-60 cells; type: cell-based, human
Description: (3) Measurement of Migration Activity
The cells were collected by centrifuging the suspension of the differentiated HL-60 cells (1,000 rpm, 5 minutes, 4° C.). After that, the following operation was repeated three times to wash the cells: 10% FBS-RPMI1640 was added to the cells; the mixture was suspended by inversion; and the mixture was centrifuged again (1,000 rpm, 5 minutes, 4° C.). Then, a medium (10% FBS-RPMI1640) was added so that a cell density was 4×10^6 cells/ml, thereby a cell suspension was prepared. Subsequently, 1 ml of each peptide solution (dissolved in 10% FBS-RPMI 1640) was transferred to each well of a 24-well plate, and the plate was incubated at 37° C. for 20 minutes. After that, 500 μl of the cell suspension (2×10^6 cells) were put in Chemotaxicell (KURABO […] LTD., 3 μm) and the Chemotaxicell was set in a plate, followed by incubation in the presence of 5% CO2 at 37° C. for 1 hour. Then, the Chemotaxicell was removed and the solution in each well of the plate was pipetted. The cells migrated to the plate side was suspended well and the number of the cells were measured. Note that the migration activity by the peptide was represented by a ratio of the number of the cells to the number of the cells passing the Chemotaxicell at the time of non-stimulation (Chemotaxis Index, CI).

[3] = system: G protein in the differentiated HL-60 cell membrane fraction; experiment: G protein activation ability (GTP hydrolysis) in cell membrane fraction; type: biochemical, human
Description: (4) Measurement of G Protein Activation Ability
The cells were collected by centrifuging the suspension of the differentiated HL-60 cells (1,000 rpm, 5 minutes, 4° C.). After that, the following operation was repeated three times to wash the cells: ice-cooled PBS was added to the cells; the mixture was suspended by inversion; and the mixture was centrifuged (1,000 rpm, 5 minutes, 4° C.). Then, the precipitated cells were suspended in a buffer for preparing a cell membrane fraction (20 mM Tris-HCl, 250 mM sucrose, 1.5 mM MgCl2, 3 mM benzamidine hydrochloride monohydrate, 1 μM leupeptin, 1 μM PMSF, 2 μg/ml trypsin inhibitor, pH 7.5) and a cell homogenate was prepared using nitrogen pressing-depressing type cell homogenizing apparatus (nitrogen pressure: 350 psi). After that, the resultant was ultracentrifuged (20,000 g, 4° C., 30 minutes) to remove the supernatant, and the precipitate was suspended in a membrane fraction buffer (20 mM Tris-HCl, 1 mM EDTA, 1 mM DTT, 77.5 mTIU/ml aprotinin, pH 7.5) and used as a cell membrane fraction. After dispensed, the cell membrane fraction was stored at −80° C. The activity of the G protein was quantified using the activity to hydrolyze GTP to GDP as an index. […] The mixture was centrifuged (15,000 rpm, 1 minute, 4° C.), and the radioactivity of the supernatant was measured.

[4] = target: T1, bovine Gi1-G protein (Bos taurus, UniProt P63097); experiment: G protein activation ability (GTP hydrolysis) with purified Gi1; type: biochemical
T1 construct: made in house; host or cells: E. coli

[5] = system: neutrophil-like differentiated HL-60 cells; experiment: binding of biotinylated peptides to cell surfaces (streptavidin-Alexa488 fluorescence microscopy); design: species or system human; details: peptide 10 μM, 37° C., 30 minutes
Description: (§1) Thus, it was confirmed that the synthesized functional peptide derivatives had the activities. Therefore, subsequently, in order to identify the binding sites of the functional peptides in the cells, these peptides (final concentration 10 μM) were incubated with the neutrophil-like differentiated HL-60 cells or undifferentiated HL-60 cells prepared in Example 3-(3) at 37° C. for 30 minutes. After that, the obtained cell suspension was centrifuged (1,000 rpm, 5 minutes, 4° C.) and the supernatant was removed. Further, HBHS was added and the mixture was centrifuged to wash the cells. Then, the cells were resuspended in HBHS. A streptavidin-HBHS labeled with a fluorescence, Alexa488 (Molecular probe, Invitrogen Corporation.) was added thereto, and the mixture was centrifuged, and the supernatant was removed. Further, the following operation was repeated three times to wash the cells: HBHS was added and the mixture was centrifuged.

[6] = system: undifferentiated HL-60 cells; experiment: as above; design: species or system human; details: peptide 10 μM, 37° C., 30 minutes
Description: as §1

[7] = target: T2, heat shock 70 kDa protein 8 isoform 1 (SEQ ID NO: 52) (Homo sapiens, UniProt P11142); experiment: chemical crosslinking experiment, streptavidin beads, electrophoresis (receptor identification); type: binding; details: peptide 10 μM; for bands of specifically binding proteins in SDS gel electrophoresis: differentiated HL-60 cell lysate, silver stain
T2 construct: endogenous in cells; host or cells: neutrophil-like differentiated HL-60 cells
Description: Then, in order to identify directly the receptor molecules to which these functional peptides are bound, the following chemical crosslinking experiment was performed. That is, the HL-60 cells differentiated into the neutrophil-like cells were suspended in HBHS (not containing 0.1% BSA). The suspension was centrifuged (1,000 rpm, 5 minutes, 4° C.) and the supernatant was removed. The cells were suspended again in the HBHS not containing BSA so as to have the cell density of 5.6×10^6 cells/ml. The obtained cell suspension was preincubated at 37° C. for 10 minutes at first, and 1/10 volume of mitocryptide-3 and -5, [Cys^0]mitocryptide-3, [Cys^0]mitocryptide-5, [Cys^24]mitocryptide-3, and peptides obtained by introducing biotin into the N terminals thereof (N-biotinyl-mitocryptide-3, N-biotinyl-mitocryptide-5, N-biotinyl-[Cys^0]mitocryptide-3, N-biotinyl-[Cys^0]mitocryptide-5, and N-biotinyl-[Cys^24]mitocryptide-3) were added to have the final concentration of 10 μM, followed by incubation at 37° C. for 30 minutes. After that, the cell suspension was centrifuged (5,000 rpm, 4° C., 1 minute) and the supernatant was removed. The resultant cells were resuspended in HBHS not containing BSA and centrifuged again to wash the cells. 1 ml of a buffer for dissolving cells (100 mM NaCl, 20 mM Tris-HCl, 1 mM EDTA, 77.5 mTIU/ml aprotinin, 1 μM leupeptin, 1 μg/ml pepstatin A, 1 μg/ml phosphoramidone, 1% CHAPS, pH 7.5) with respect to 1 ml of the original cell suspension was added to the cell precipitate, and the mixture was incubated at 4° C. for 30 minutes to dissolve the cells, thereby a cell lysate was prepared. The cell lysate was centrifuged (15,000 rpm, 4° C., 15 minutes) and the supernatant was centrifuged again in the same condition. The obtained supernatant was incubated with streptavidin beads at 4° C. for 30 minutes, then, the beads were washed by centrifugation with the buffer for dissolving cells three times. Further, the beads were treated by heat at 100° C. for 10 minutes in the buffer for dissolving cells, and the mixture was centrifuged. The obtained supernatant was subjected to an SDS gel electrophoresis to separate the contained protein. Then, the gel was stained by silver stain method, thereby the proteins were analyzed. […] As a result, two specific spots were detected (FIG. 15-A). Therefore, the protein was extracted and degraded with trypsin, and then, the degraded proteins were analyzed by mass spectrometry.

T2 sequence (P11142 whole entry, canonical isoform): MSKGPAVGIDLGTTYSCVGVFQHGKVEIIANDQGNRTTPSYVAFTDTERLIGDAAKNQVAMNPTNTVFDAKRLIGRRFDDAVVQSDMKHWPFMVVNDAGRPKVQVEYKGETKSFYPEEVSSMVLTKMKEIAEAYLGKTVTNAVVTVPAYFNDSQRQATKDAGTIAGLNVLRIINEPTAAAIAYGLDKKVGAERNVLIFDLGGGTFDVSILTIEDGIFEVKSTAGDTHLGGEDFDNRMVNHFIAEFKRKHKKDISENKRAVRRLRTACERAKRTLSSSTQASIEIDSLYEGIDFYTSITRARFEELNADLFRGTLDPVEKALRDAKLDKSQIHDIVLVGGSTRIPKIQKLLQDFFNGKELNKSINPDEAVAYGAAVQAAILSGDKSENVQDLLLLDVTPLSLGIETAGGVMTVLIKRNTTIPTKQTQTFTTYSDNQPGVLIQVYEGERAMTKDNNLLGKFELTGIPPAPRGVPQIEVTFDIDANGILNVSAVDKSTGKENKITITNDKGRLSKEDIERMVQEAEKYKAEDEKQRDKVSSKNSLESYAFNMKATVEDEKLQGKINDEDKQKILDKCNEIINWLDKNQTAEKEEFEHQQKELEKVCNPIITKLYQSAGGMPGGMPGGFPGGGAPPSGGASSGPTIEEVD
T1 sequence (P63097 whole entry): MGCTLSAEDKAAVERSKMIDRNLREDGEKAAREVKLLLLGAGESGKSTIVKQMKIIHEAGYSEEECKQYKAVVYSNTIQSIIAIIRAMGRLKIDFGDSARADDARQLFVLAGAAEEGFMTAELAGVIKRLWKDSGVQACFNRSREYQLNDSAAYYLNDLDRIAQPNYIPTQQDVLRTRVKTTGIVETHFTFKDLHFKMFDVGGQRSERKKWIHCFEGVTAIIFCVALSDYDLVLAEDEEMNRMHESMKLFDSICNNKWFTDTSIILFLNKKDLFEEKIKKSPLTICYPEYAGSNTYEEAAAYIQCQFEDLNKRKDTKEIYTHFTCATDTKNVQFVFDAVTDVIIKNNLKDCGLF

Substance: N-biotinyl-Cys-Gln-Leu-Trp-Ala-Val-Gly-Ser-Phe-Met-NH2 (Biotin-CQLWAVGSFM-NH2; SMILES CSCC[C@H](NC(=O)[C@H](Cc1ccccc1)NC(=O)[C@H](CO)NC(=O)CNC(=O)[C@@H](NC(=O)[C@H](C)NC(=O)[C@H](Cc1c[nH]c2ccccc12)NC(=O)[C@H](CC(C)C)NC(=O)[C@H](CCC(N)=O)NC(=O)[C@H](CS)NC(=O)CCCC[C@@H]1SC[C@@H]2NC(=O)N[C@@H]21)C(C)C)C(N)=O) [reference compound]
binding to cell surfaces [5]: no binding was confirmed at all

Substance: N-biotinyl-[Cys^0]mitocryptide-3: [Cys^0]mitocryptide-3 with biotin introduced into the N terminal (Biotin-CMLWNLLALHQIGQRTISTASHRH)
binding to cell surfaces [5]: bound to the surfaces of the neutrophil-like differentiated HL-60 cells specifically
binding to cell surfaces [6]: less bound to the surfaces of the undifferentiated HL-60 cells
bands of specifically binding proteins in SDS gel electrophoresis [7]: five bands indicating specific binding

Substance: N-biotinyl-[Cys^0]mitocryptide-5: [Cys^0]mitocryptide-5 with biotin introduced into the N terminal (Biotin-CMFPLVKSALNRLQVRSIQQTMARQ)
binding to cell surfaces [5]: bound to the surfaces of the cells specifically
binding of heat shock 70 kDa protein 8 isoform 1 to the peptide ([7]; differentiated HL-60 cells): bound

Continued, in another order:

EC50 [1]: 380 nM
activation of purified Gi1 protein [4]: activated
Substance: MFPLVKSALNRLQVRSIQQTMARQ [No. 015]
concentration of migration activity compared with that of β-hexosaminidase-secreting activity [2]: confirmed at the almost same concentration
desensitization of migration activity with increasing concentration of the peptide [2]: subjected to desensitization completely
activation of G protein [3]: activated

bands of specifically binding proteins in SDS gel electrophoresis [7]: five bands indicating specific binding
Substance: N-biotinyl-[Cys^24]mitocryptide-3: [Cys^24]mitocryptide-3 with biotin introduced into the N terminal (Biotin-MLWNLLALHQIGQRTISTASHRHC)
